Like-named read-outs stand apart in the source and are kept apart here. One block for each molecule: values may come before it.
What was measured:
[1] = molecular target: T1, type 2 human 5α-reductase (HRED2) (Homo sapiens, UniProt P31213); assay: Cell free assay of 5α-reductase, microsomes of rat 1A cells expressing type 2 isoenzyme (HRED2); assay type: biochemical; set-up: expressed in transfected cells; host or cells: rat 1A cells infected with pMV7 retrovirus; microsomes;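 note: labeled testosterone and its product dihydrotestosterone measured in microsomal reaction extracts via thin layer chromatography plus radioanalytic scanning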
T1 sequence (P31213 1-254): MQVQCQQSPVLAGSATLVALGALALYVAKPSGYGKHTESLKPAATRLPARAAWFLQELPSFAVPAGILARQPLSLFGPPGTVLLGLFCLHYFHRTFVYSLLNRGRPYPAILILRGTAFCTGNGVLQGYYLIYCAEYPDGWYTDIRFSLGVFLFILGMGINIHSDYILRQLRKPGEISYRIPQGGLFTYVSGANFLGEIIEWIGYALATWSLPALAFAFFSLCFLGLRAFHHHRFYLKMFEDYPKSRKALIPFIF

[2] = molecular target: T2, type 1 human 5α-reductase (HRED1) (Homo sapiens, UniProt P18405); assay: Cell free assay of 5α-reductase, microsomes of rat 1A cells expressing type 1 isoenzyme (HRED1); assay type: biochemical; set-up: expressed in transfected cells; host or cells: rat 1A cells infected with pMV7 retrovirus; microsomes;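 note: microsomes from rat 1A cells expressing human type 1 5α-reductase, conversion of radiolabeled testosterone to dihydrotestosterone quantified by thin layer chromatography with radioanalytic scanning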
T2 sequence (P18405 1-259): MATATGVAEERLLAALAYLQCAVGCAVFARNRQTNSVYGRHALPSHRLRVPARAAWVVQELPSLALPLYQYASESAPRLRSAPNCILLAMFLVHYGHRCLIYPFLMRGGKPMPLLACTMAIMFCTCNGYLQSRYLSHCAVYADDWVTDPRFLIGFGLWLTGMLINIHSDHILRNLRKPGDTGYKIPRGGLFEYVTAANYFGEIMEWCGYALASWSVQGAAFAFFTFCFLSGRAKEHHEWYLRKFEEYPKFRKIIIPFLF

[3] = 100 uM, cell free assay, Table 2, read-out: HRED2 % Inhibition @ 100 uM
[4] = 100 uM, cell free assay, Table 2, read-out: HRED1 % Inhibition @ 100 uM
[5] = cell free assay, Table 2 catechols, read-out: HRED1 IC50
[6] = cell free assay, Table 1 flavanoids, read-out: HRED2 IC50
[7] = cell free assay, Table 1 flavanoids, read-out: HRED1 IC50
[8] = cell-free assay, read-out: IC50, type 1 isoenzyme
[9] = 100 μM, cell free assay, Table 4
[10] = cell free assay, Table 4 quinones, read-out: HRED2 IC50
[11] = cell free assay, Table 4 quinones, read-out: HRED1 IC50
[12] = 100 uM, cell free assay, Table 3
[13] = cell free assay, Table 3 curcumin and related compounds, read-out: HRED2 IC50
[14] = cell free assay, Table 3 curcumin and related compounds, read-out: HRED1 IC50
[15] = 100 uM, cell free assay, Table 2
[16] = 100 uM, cell free assay, Table 3, read-out: HRED2 % Inhibition @ 100 uM
[17] = 100 uM, cell free assay, Table 3, read-out: HRED1 % Inhibition @ 100 uM
[18] = cell free assay, Table 2 catechols, read-out: HRED2 IC50
[19] = 100 uM, cell free assay, Table 1
[20] = cell-free assay, read-out: IC50, type 2 isoenzyme

inhibition at 100 µM [1, 3]: 47%
inhibition at 100 µM [2, 4]: 85%
IC50 [2, 5]: 48 µM
Structure (SMILES): O=C1C=CC(=C(c2ccc(O)c(O)c2)c2ccccc2S(=O)(=O)O)C=C1O (mixture of isomers) [Pyrocatechol Violet]

IC50 [1, 6]: > 100 µM
IC50 ([1]; read-out: IC50, type 2 isoenzyme): > 100 µM
IC50 [2, 7]: > 100 µM
IC50 [2, 8]: > 100 µM
Structure (SMILES): C[C@@H]1O[C@@H](OC[C@H]2O[C@@H](Oc3c(-c4ccc(O)c(O)c4)oc4cc(O)cc(O)c4c3=O)[C@H](O)[C@@H](O)[C@@H]2O)[C@H](O)[C@H](O)[C@H]1O [Rutin]

HRED2 % Inhibition @ 100 uM [1, 12]: 42%
IC50 [1, 13]: > 100 µM
HRED1 % Inhibition @ 100 uM [2, 12]: 23%
IC50 [2, 14]: > 100 µM
Structure (SMILES): COc1cc(CCC(=O)CC(=O)CCc2ccc(O)cc2)ccc1O [Demethoxytetrahydrocurcumin]

IC50 [1, 18]: > 100 µM
IC50 [2, 5]: 15 µM
Structure (SMILES): O=c1ccc2c(-c3ccccc3S(=O)(=O)O)c3ccc(O)c(O)c3oc-2c1O [Pyrogallol Red]

HRED2 % Inhibition @ 100 uM [1, 15]: 6%
IC50 [1, 18]: > 100 µM
HRED1 % Inhibition @ 100 uM [2, 15]: 10%
IC50 [2, 5]: > 100 µM
Structure (SMILES): O=C(NCCc1cc(O)c(O)c(O)c1)c1cc(O)c(O)c(O)c1 [HZIV 275]

IC50 [1, 6]: > 100 µM
IC50 [2, 7]: > 100 µM
Structure (SMILES): O=c1cc(-c2ccccc2)oc2cc(O)cc(O)c12 [Chrysin]

inhibition at 100 µM [1, 3]: 9%
IC50 [1, 18]: > 100 µM
inhibition at 100 µM [2, 4]: 7%
IC50 [2, 5]: > 100 µM
Structure (SMILES): O=c1oc2c(O)c(O)cc3c(=O)oc4c(O)c(O)cc1c4c23 [Ellagic Acid]

IC50 ([1]; cell free assay, Table 6 fatty acids, read-out: HRED2 IC50): > 100 µM
IC50 ([2]; cell free assay, Table 6 fatty acids, read-out: HRED1 IC50): 7 µM
Structure (SMILES): CC(/C=C/C=C(\C)C(=O)O)=C\C=C\C=C(C)\C=C\C=C(/C)C(=O)O [Crocetin]

inhibition at 100 µM ([1]; 100 uM, cell free assay, Table 1, read-out: HRED2 % Inhibition @ 100 uM): 5%
IC50 [1, 6]: > 100 µM
IC50 [1, 20]: > 100 µM
inhibition at 100 µM ([2]; 100 uM, cell free assay, Table 1, read-out: HRED1 % Inhibition @ 100 uM): 5%
IC50 [2, 7]: > 100 µM
IC50 [2, 8]: > 100 µM
Structure (SMILES): O=C1c2c(O)cc(O)cc2O[C@H](c2ccc(O)c(O)c2)[C@H]1O [Taxifolin]

HRED2 % Inhibition @ 100 uM [1, 15]: 13%
IC50 [1, 18]: > 100 µM
HRED1 % Inhibition @ 100 uM [2, 15]: 7%
IC50 [2, 5]: > 100 µM
Structure (SMILES): O=c1ccc2cc(O)c(O)cc2o1 [Exculetin]

Continued, molecule first:

Structure (SMILES): CC(C)(C)c1cc(O)ccc1O [T-butylhydroxyquinone]
HRED2 % Inhibition @ 100 μM [1, 9]: 4%
IC50 [1, 10]: > 100 µM
HRED1 % Inhibition @ 100 μM [2, 9]: 19%
IC50 [2, 11]: > 100 µM

Structure (SMILES): NCCc1cc(O)c(O)c(O)c1 [Hydroxydopamine]
HRED2 % Inhibition @ 100 uM [1, 15]: 41%

Structure (SMILES): COc1cc(C=CC=O)ccc1O [4-hydroxy-3-methoxycinnamaldehyde]
inhibition at 100 µM [1, 16]: -60%
IC50 ([1]; read-out: HRED2 IC50): > 100 µM
inhibition at 100 µM [2, 17]: 10%
IC50 [2, 14]: > 100 µM

Structure (SMILES): O=c1cc(-c2ccccc2)oc2c1ccc1ccccc12 [Alpha-napthoflavone]
HRED2 % Inhibition @ 100 uM [1, 19]: (−13) %
IC50 [1, 6]: > 100 µM
HRED1 % Inhibition @ 100 uM [2, 19]: 6%
IC50 [2, 7]: > 100 µM

Structure (SMILES): Oc1cc2c(cc1O)[C@@H]1c3ccc(O)c(O)c3OC[C@]1(O)C2 [Hematoxylin]
inhibition at 100 µM [1, 3]: 38%
IC50 [1, 18]: > 100 µM
inhibition at 100 µM [2, 4]: 59%
IC50 [2, 5]: 83 µM

Structure (SMILES): COc1cc(/C=C/C(=O)O)ccc1O [Ferulic Acid]
inhibition at 100 µM [1, 16]: 18%
IC50 [1, 13]: > 100 µM
IC50 [1, 20]: > 100 µM
inhibition at 100 µM [2, 17]: 0%
IC50 [2, 14]: > 100 µM
IC50 [2, 8]: > 100 µM

Structure (SMILES): COc1cc(CNC(=O)CCCC/C=C/C(C)C)ccc1O [Capsaicin]
IC50 [1]: > 100 µM
inhibition at 100 µM [1, 16]: 8%
IC50 ([1]; read-out: HRED2 IC50): > 100 µM
IC50 [2]: > 100 µM
inhibition at 100 µM [2, 17]: 0%
IC50 [2, 14]: > 100 µM

Structure (SMILES): COC1=C(OC)C(=O)C(C/C=C(\C)CC/C=C(\C)CC/C=C(\C)CC/C=C(\C)CC/C=C(\C)CC/C=C(\C)CC/C=C(\C)CC/C=C(\C)CC/C=C(\C)CCC=C(C)C)=C(C)C1=O [Coenzyme q]
HRED2 % Inhibition @ 100 μM [1, 9]: 81%
IC50 [1, 10]: 22 µM
inhibitory activity against type 2 isoenzyme, in words ([1]; cell-free assay): potent cell-free inhibitors
HRED1 % Inhibition @ 100 μM [2, 9]: 77%
IC50 [2, 11]: 12 µM
inhibitory activity against type 1 isoenzyme, in words ([2]; cell-free assay): potent cell-free inhibitors

Structure (SMILES): O=C1c2cccc(O)c2C(=O)c2cccc(O)c21 [Anthrarufin]
HRED2 % Inhibition @ 100 μM [1, 9]: 13%
inhibition at 100 µM ([1]; 100 μM, cell free assay, Table 4, read-out: HRED2 % Inhibition @ 100 μM): 13%
IC50 [1, 10]: > 100 µM
HRED1 % Inhibition @ 100 μM [2, 9]: 67%
inhibition at 100 µM ([2]; 100 μM, cell free assay, Table 4, read-out: HRED1 % Inhibition @ 100 μM): 67%
IC50 [2, 11]: 40 µM

Reference: patent US20030144346A1, “Methods and compositions for regulation of 5-alpha reductase activity” (priority 1997, published 2003)
